US7341992B2, “Lectin-like domain of thrombomodulin and its therapeutic use” (Vlaams Interuniversitair Instituut Voor Biotechnologie VZW, priority 2001, dated 2008)

Test system: TM^wt/wt endothelial cells
Test: Static adhesion assay: murine PMNs on endothelial cells from TM^wt/wt mice
Type: cell-based
Conditions: addition of PPACK to exclude thrombin effect
Source text: Table 8: Static adhesion assay. […] This is a representative experiment performed 3 times, on 3 different clones each. For each experiment, 5 wells were used for each condition, and adherent leukocytes in 15 microscopic fields were counted.
Since TM expression is not restricted to vascular endothelial cells, but is also synthesized by other cells including neutrophils and monocytes, we considered the possibility that the increase in leukocyte efflux into the lungs might be a result of TM alterations on either the neutrophils and/or the vascular endothelium. fEND.5 cells are an established PymT transformed murine endothelial cell line that expresses full-length, functional TM on the cell surface. […] Adhesion and rolling of neutrophils to transformed endothelial cells derived from the TM^wt/wt and TM^LeD/LeD mice were consequently evaluated. […] This was determined not to be an endothelial cell clone-specific artifact, as 3 different clones of endothelial cells were evaluated with similar results. There was also a significant 3-fold increase in PMN and lymphocyte adhesion to resting TM^LeD/LeD endothelial cells as compared to TM^wt/wt endothelial cells (Table 8). […]
Neutrophils and lymphocytes were isolated from bone marrow according to the method of Lowell and Berton ^35. Each population was assessed to be over 95% pure by microscopic analysis after Wright staining. […]

NC(N)=NCCC[C@H](NC(=O)[C@@H]1CCCN1C(=O)[C@H](N)Cc1ccccc1)C(=O)CCl [PPACK]
effect on the results of the adhesion assays: no effect
